Results taken from ChEMBL document CHEMBL4613273, “Discovery of Aryl Formyl Piperidine Derivatives as Potent, Reversible, and Selective Monoacylglycerol Lipase Inhibitors” (J Med Chem, 2020).

Experiments:
Monoglyceride lipase = target: T1, Monoglyceride lipase (Homo sapiens, UniProt Q99685); experiment: Inhibition of human recombinant MAGL pre-incubated for 5 mins before MAGL substrate addition and further incubated for 10 mins
T1 sequence (Q99685 whole entry): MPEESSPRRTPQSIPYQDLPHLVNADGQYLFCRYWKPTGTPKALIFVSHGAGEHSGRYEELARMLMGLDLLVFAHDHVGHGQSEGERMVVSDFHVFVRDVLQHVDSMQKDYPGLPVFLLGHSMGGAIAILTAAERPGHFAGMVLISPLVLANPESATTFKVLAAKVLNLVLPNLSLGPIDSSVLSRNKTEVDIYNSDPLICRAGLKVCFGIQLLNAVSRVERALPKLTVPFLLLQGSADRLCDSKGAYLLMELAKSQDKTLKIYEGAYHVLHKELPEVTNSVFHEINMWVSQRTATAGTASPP

Mus musculus [1] = experiment: Antidepressant activity in ICR mouse model of reserpine-induced depression assessed as immobility time at 5 mg/kg, ig by forced swim test (reference value: 136.84 +/- 46.69 secs); type: functional
Mus musculus [2] = experiment: Antidepressant activity in ICR mouse model of reserpine-induced depression assessed as immobility time at 5 mg/kg, ig by tail suspension test (reference value: 132.38 +/- 44.51 secs); type: functional
[3] = target: T2, Fatty-acid amide hydrolase 1 (Rattus norvegicus, UniProt P97612); experiment: Inhibition of rat FAAH
T2 sequence (P97612 whole entry): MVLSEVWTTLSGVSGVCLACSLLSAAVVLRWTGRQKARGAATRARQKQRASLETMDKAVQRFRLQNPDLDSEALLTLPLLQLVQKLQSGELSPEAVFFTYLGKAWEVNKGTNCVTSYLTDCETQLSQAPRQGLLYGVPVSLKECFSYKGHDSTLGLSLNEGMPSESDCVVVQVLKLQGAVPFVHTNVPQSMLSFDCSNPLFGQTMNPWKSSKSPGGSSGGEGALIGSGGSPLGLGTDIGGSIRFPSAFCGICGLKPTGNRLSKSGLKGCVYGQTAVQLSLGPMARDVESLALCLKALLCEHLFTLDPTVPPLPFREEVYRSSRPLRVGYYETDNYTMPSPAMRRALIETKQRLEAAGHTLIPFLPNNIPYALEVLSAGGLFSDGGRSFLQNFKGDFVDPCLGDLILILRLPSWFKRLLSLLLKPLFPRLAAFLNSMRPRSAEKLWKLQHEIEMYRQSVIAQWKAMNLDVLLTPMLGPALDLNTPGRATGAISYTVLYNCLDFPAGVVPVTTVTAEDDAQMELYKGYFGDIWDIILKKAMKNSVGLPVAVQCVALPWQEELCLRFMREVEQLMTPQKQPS

Row | IC50 (Monoglyceride lipase) | Compound | further results
1 | > 100 µM | O=C(Nc1cccc(Cl)c1)C1CCN(C(=O)c2ccc(Cl)cc2)CC1 | 
2 | > 100 µM | O=C(Nc1ccccc1)C1CCN(C(c2ccccc2)c2ccccc2)CC1 | 
3 | > 100 µM | Cc1cc(C)cc(NC(=O)C2CCN(C(c3ccc(F)cc3)c3ccc(F)cc3)CC2)c1 | 
4 |  | CNCCC(Oc1ccc(C(F)(F)F)cc1)c1ccccc1.Cl (stereo unspecified) [FLUOXETINE HYDROCHLORIDE] | Time (Mus musculus [1]): 92.64 s; Time (Mus musculus [2]): 92.19 s
5 | > 100 µM | O=C(Nc1cccc(Cl)c1)C1CCN(C(=O)c2ccccc2O)CC1 | 
6 |  | CC(C)(C)c1ccc(CN2CCN(C(=S)Sc3ccc([N+](=O)[O-])cc3[N+](=O)[O-])CC2)cc1 | IC50 [3]: 1.74 µM
7 | > 100 µM | COc1cccc(C(=O)N2CCC(C(=O)Nc3cccc(O)c3)CC2)c1 | 
8 | > 100 µM | O=C(Nc1ccccc1)C1CCN(C(c2ccc(F)cc2)c2ccc(F)cc2)CC1 | 
9 | > 100 µM | Cc1cc(C)cc(NC(=O)C2CCN(C(c3ccccc3)c3ccccc3)CC2)c1 | 
10 | > 100 µM | COc1cccc(NC(=O)C2CCN(C(c3ccccc3)c3ccccc3)CC2)c1 | 
